{"source": "patent US20060035897A1", "about": "“Trifluoromethyl substituted benzamides as kinase inhibitors” (priority 2004, published 2006)"}
{"smiles": "Cc1ccc(C(=O)Nc2cccc(C(F)(F)F)c2)cc1-c1ccc2ccncc2c1", "note": "[Example 3, 3-Isoquinolin-7-yl-4-methyl-N-(3-trifluoromethyl-phenyl)-benzamide]", "values": [{"measurement": "melting point", "result": "157 to 159", "unit": "°C"}]}
{"smiles": "Cc1ccc(C(=O)Nc2ccc(CN(C)C)c(C(F)(F)F)c2)cc1-c1ccc2cnncc2c1", "note": "[Example 24, N-(4-Dimethylaminomethyl-3-trifluoromethyl-Phenyl)-4-methyl-3-phthalazin-6-yl-benzamide]", "values": [{"measurement": "melting point", "result": "251 to 254", "unit": "°C"}]}
{"smiles": "Cc1ccc(C(=O)Nc2ccc(CN3CCCCC3)c(C(F)(F)F)c2)cc1-c1ccc2cnncc2c1", "note": "[Example 22, 4-Methyl-3-phthalazin-6-yl-N-(4-piperidin-1-ylmethyl-3-trifluoromethyl-phenyl)-benzamide]", "values": [{"measurement": "melting point", "result": "247 to 249", "unit": "°C"}]}
{"smiles": "Cc1ccc(C(=O)Nc2ccc(CN3CCCC3)c(C(F)(F)F)c2)cc1-c1ccc2cnncc2c1", "note": "[Example 25, 4-Methyl-3-phthalazin-6-yl-N-(4-pyrrolidin-1-ylmethyl-3-trifluoromethyl-phenyl)-benzamide]", "values": [{"measurement": "melting point", "result": "246 to 250", "unit": "°C"}]}
{"smiles": "Cc1ccc(NC(=O)c2ccc(CN(C)C)c(C(F)(F)F)c2)cc1-c1ccc2cnncc2c1", "note": "[Example 19, 4-Dimethylaminomethyl-N-(4-methyl-3-phthalazin-6-yl-phenyl)-3-trifluoromethyl-benzamide]", "values": [{"measurement": "melting point", "result": "240 to 241", "unit": "°C"}]}
{"smiles": "Cc1ccc(NC(=O)c2cccc(C(F)(F)F)c2)cc1-c1ccc2ncsc2c1", "note": "[Example 5, N-(3-Benzothiazol-6-yl-4-methyl-phenyl)-3-trifluoromethyl-benzamide]", "values": [{"measurement": "melting point", "result": "94 to 96", "unit": "°C"}]}
{"smiles": "Cc1ccc(NC(=O)c2ccc(CN3CCCCC3)c(C(F)(F)F)c2)cc1-c1ccc2cnncc2c1", "note": "[Example 17, N-(4-Methyl-3-phthalazin-6-yl-phenyl)-4-piperidin-1-ylmethyl-3-trifluoromethyl-benzamide]", "values": [{"measurement": "melting point", "result": "175 to 177", "unit": "°C"}]}
{"smiles": "Cc1ccc(C(=O)Nc2cccc(C(F)(F)F)c2)cc1-c1ccc2scnc2c1", "note": "[Example 10, 3-Benzothiazol-5-yl-4-methyl-N-(3-trifluoromethylphenyl)benzamide]", "values": [{"measurement": "melting point", "result": "200 to 202", "unit": "°C"}]}
{"smiles": "Cc1ccc(C(=O)Nc2ccc(CN3CCOCC3)c(C(F)(F)F)c2)cc1-c1ccc2cnncc2c1", "note": "[Example 23, 4-Methyl-N-(4-morpholin-4-ylmethyl-3-trifluoromethyl-phenyl)-3-phthalazin-6-yl-benzamide]", "values": [{"measurement": "melting point", "result": "284 to 287", "unit": "°C"}]}
{"smiles": "Cc1ccc(NC(=O)c2ccc(CN3CCOCC3)c(C(F)(F)F)c2)cc1-c1ccc2cnncc2c1", "note": "[Example 20, N-(4-Methyl-3-phthalazin-6-yl-phenyl)-4-morpholin-4-ylmethyl-3-trifluoromethyl-benzamide]", "values": [{"measurement": "melting point", "result": "236 to 238", "unit": "°C"}]}
{"smiles": "Cc1ccc(NC(=O)c2cccc(C(F)(F)F)c2)cc1-c1ccc2ccncc2c1", "note": "[Example 1, N-(3-Isoquinolin-7-yl-4-methyl-phenyl)-3-trifluoromethyl-benzamide]", "values": [{"measurement": "melting point", "result": "148 to 152", "unit": "°C"}]}
{"smiles": "Cc1ccc(C(=O)Nc2cccc(C(F)(F)F)c2)cc1-c1ccc2cnncc2c1", "note": "[Example 8, 4-Methyl-3-phthalazin-6-yl-N-(3-trifluoromethyl-phenyl)-benzamide]", "values": [{"measurement": "melting point", "result": "270 to 272", "unit": "°C"}]}
{"smiles": "Cc1ccc(NC(=O)c2cccc(C(F)(F)F)c2)cc1-c1ccc2cnncc2c1", "note": "[Example 7, N-(4-Methyl-3-phthalazin-6-yl-phenyl)-3-trifluoromethyl-benzamide]", "values": [{"measurement": "melting point", "result": "205 to 206", "unit": "°C"}]}
{"smiles": "Cc1ccc(NC(=O)c2cccc(C(F)(F)F)c2)cc1-c1ccc2scnc2c1", "note": "[Example 9, N-(3-Benzothiazol-5-yl-4-methyl-phenyl)-3-trifluoromethyl-benzamide]", "values": [{"measurement": "melting point", "result": "90 to 93", "unit": "°C"}]}
{"smiles": "Cc1ccc(NC(=O)c2ccc(CN3CCN(C)CC3)c(C(F)(F)F)c2)cc1-c1ccc2cnncc2c1", "note": "[Example 15, N-(4-Methyl-3-phthalazin-6-yl-phenyl)-4-(4-methyl-piperazin-1-ylmethyl)-3-trifluoromethyl-benzamide]", "values": [{"measurement": "melting point", "result": "204 to 208", "unit": "°C"}]}
{"smiles": "Cc1ccc(C(=O)Nc2cccc(C(F)(F)F)c2)cc1-c1ccc2ncsc2c1", "note": "[Example 6, 3-Benzothiazol-6-yl-4-methyl-N-(3-trifluoromethyl-phenyl)-benzamide]", "values": [{"measurement": "melting point", "result": "102 to 104", "unit": "°C"}]}
